{
  "source": "paper PMC7523345",
  "about": "(Investigational new drugs, 2018)",
  "assay": "Phase I dose escalation study: safety, tolerability, DLT and MTD",
  "format": "in vivo",
  "note": "“Also recorded” adds a separate entry of the source.",
  "data": [
    {"smiles": "Cc1cccc2c1NC(=O)[C@@H](NC(=O)[C@H](CCC(F)(F)F)[C@H](CCC(F)(F)F)C(N)=O)N=C2c1cccc(F)c1", "note": "[BMS-986115]", "values": [
      {"measurement": "Diarrhoea (drug related AE, Grade 3 and 4)", "setting": "Arm A QD 1.5 mg (N = 7)", "value": "2 (29) n (%)"},
      {"measurement": "Diarrhoea (drug related AE, all grades)", "setting": "Arm A QD 1.5 mg (N = 7)", "value": "6 (86) n (%)"},
      {"measurement": "Dry mouth (drug related AE, all grades)", "setting": "Arm A QD 1.5 mg (N = 7)", "value": "0 n (%)"},
      {"measurement": "Dry skin (drug related AE, all grades)", "setting": "Arm A QD 1.5 mg (N = 7)", "value": "1 (14) n (%)"},
      {"measurement": "Dysgeusia (drug related AE, all grades)", "setting": "Arm A QD 1.5 mg (N = 7)", "value": "0 n (%)"},
      {"measurement": "Dyspepsia (drug related AE, all grades)", "setting": "Arm A QD 1.5 mg (N = 7)", "value": "0 n (%)"},
      {"measurement": "Dysphonia (drug related AE, all grades)", "setting": "Arm A QD 1.5 mg (N = 7)", "value": "1 (14) n (%)"},
      {"measurement": "Fatigue (drug related AE, Grade 3 and 4)", "setting": "Arm A QD 1.5 mg (N = 7)", "value": "1 (14) n (%)"},
      {"measurement": "Fatigue (drug related AE, all grades)", "setting": "Arm A QD 1.5 mg (N = 7)", "value": "4 (57) n (%)"},
      {"measurement": "Flatulence (drug related AE, all grades)", "setting": "Arm A QD 1.5 mg (N = 7)", "value": "0 n (%)"},
      {"measurement": "Hypocalcaemia (drug related AE, Grade 3 and 4)", "setting": "Arm A QD 1.5 mg (N = 7)", "value": "0 n (%)"},
      {"measurement": "Hypocalcaemia (drug related AE, all grades)", "setting": "Arm A QD 1.5 mg (N = 7)", "value": "1 (14) n (%)"},
      {"measurement": "Hypokalaemia (drug related AE, Grade 3 and 4)", "setting": "Arm A QD 1.5 mg (N = 7)", "value": "1 (14) n (%)"},
      {"measurement": "Hypokalaemia (drug related AE, all grades)", "setting": "Arm A QD 1.5 mg (N = 7)", "value": "2 (29) n (%)"},
      {"measurement": "Hyponatraemia (drug related AE, Grade 3 and 4)", "setting": "Arm A QD 1.5 mg (N = 7)", "value": "1 (14) n (%)"},
      {"measurement": "Hyponatraemia (drug related AE, all grades)", "setting": "Arm A QD 1.5 mg (N = 7)", "value": "1 (14) n (%)"},
      {"measurement": "Hypophosphataemia (drug related AE, Grade 3 and 4)", "setting": "Arm A QD 1.5 mg (N = 7)", "value": "2 (29) n (%)"},
      {"measurement": "Hypophosphataemia (drug related AE, all grades)", "setting": "Arm A QD 1.5 mg (N = 7)", "value": "4 (57) n (%)"},
      {"measurement": "Ileus (drug related AE, Grade 3 and 4)", "setting": "Arm A QD 1.5 mg (N = 7)", "value": "0 n (%)"},
      {"measurement": "Increased upper airway secretion (drug related AE, all grades)", "setting": "Arm A QD 1.5 mg (N = 7)", "value": "0 n (%)"},
      {"measurement": "Laryngeal pain (drug related AE, all grades)", "setting": "Arm A QD 1.5 mg (N = 7)", "value": "2 (29) n (%)"},
      {"measurement": "Leucocytosis (drug related AE, Grade 3 and 4)", "setting": "Arm A QD 1.5 mg (N = 7)", "value": "0 n (%)"},
      {"measurement": "Mouth ulceration (drug related AE, all grades)", "setting": "Arm A QD 1.5 mg (N = 7)", "value": "0 n (%)"},
      {"measurement": "Nausea (drug related AE, Grade 3 and 4)", "setting": "Arm A QD 1.5 mg (N = 7)", "value": "2 (29) n (%)"},
      {"measurement": "Nausea (drug related AE, all grades)", "setting": "Arm A QD 1.5 mg (N = 7)", "value": "5 (71) n (%)"},
      {"measurement": "Pruritus (drug related AE, Grade 3 and 4)", "setting": "Arm A QD 1.5 mg (N = 7)", "value": "0 n (%)"},
      {"measurement": "Pruritus (drug related AE, all grades)", "setting": "Arm A QD 1.5 mg (N = 7)", "value": "2 (29) n (%)"},
      {"measurement": "Pulmonary embolism (drug related AE, Grade 3 and 4)", "setting": "Arm A QD 1.5 mg (N = 7)", "value": "1 (14) n (%)"},
      {"measurement": "Rash (drug related AE, all grades)", "setting": "Arm A QD 1.5 mg (N = 7)", "value": "2 (29) n (%)"},
      {"measurement": "Rash maculopapular (drug related AE, all grades)", "setting": "Arm A QD 1.5 mg (N = 7)", "value": "0 n (%)"},
      {"measurement": "Sinusitis (drug related AE, all grades)", "setting": "Arm A QD 1.5 mg (N = 7)", "value": "0 n (%)"},
      {"measurement": "Urticaria (drug related AE, Grade 3 and 4)", "setting": "Arm A QD 1.5 mg (N = 7)", "value": "0 n (%)"},
      {"measurement": "Vision blurred (drug related AE, all grades)", "setting": "Arm A QD 1.5 mg (N = 7)", "value": "1 (14) n (%)"},
      {"measurement": "Vomiting (drug related AE, Grade 3 and 4)", "setting": "Arm A QD 1.5 mg (N = 7)", "value": "0 n (%)"},
      {"measurement": "Vomiting (drug related AE, all grades)", "setting": "Arm A QD 1.5 mg (N = 7)", "value": "4 (57) n (%)"},
      {"measurement": "Weight decreased (drug related AE, all grades)", "setting": "Arm A QD 1.5 mg (N = 7)", "value": "1 (14) n (%)"},
      {"measurement": "No. of patients with DLTs", "setting": "Arm A QD 1.5 mg, 6 DLT evaluable patients", "value": 1},
      {"measurement": "Description of DLT", "setting": "Arm A QD 2.0 mg", "value": "Gr 3 ileus; Gr 3 nausea; Gr 3 pruritus/urticaria; also recorded: G3 ileus; also recorded: G3 nausea; also recorded: G3 pruritus/urticaria"},
      {"measurement": "Abdominal distension (drug related AE, all grades)", "setting": "Arm A QD 2.0 mg (N = 7)", "value": "0 n (%)"},
      {"measurement": "Abdominal pain (drug related AE, Grade 3 and 4)", "setting": "Arm A QD 2.0 mg (N = 7)", "value": "0 n (%)"},
      {"measurement": "Abdominal pain (drug related AE, all grades)", "setting": "Arm A QD 2.0 mg (N = 7)", "value": "1 (14) n (%)"},
      {"measurement": "Blood creatinine increased (drug related AE, all grades)", "setting": "Arm A QD 2.0 mg (N = 7)", "value": "1 (14) n (%)"},
      {"measurement": "Colitis (drug related AE, Grade 3 and 4)", "setting": "Arm A QD 2.0 mg (N = 7)", "value": "0 n (%)"},
      {"measurement": "Cough (drug related AE, Grade 3 and 4)", "setting": "Arm A QD 2.0 mg (N = 7)", "value": "1 (14) n (%)"},
      {"measurement": "Cough (drug related AE, all grades)", "setting": "Arm A QD 2.0 mg (N = 7)", "value": "1 (14) n (%)"},
      {"measurement": "Decreased Appetite (drug related AE, Grade 3 and 4)", "setting": "Arm A QD 2.0 mg (N = 7)", "value": "0 n (%)"},
      {"measurement": "Decreased Appetite (drug related AE, all grades)", "setting": "Arm A QD 2.0 mg (N = 7)", "value": "5 (71) n (%)"},
      {"measurement": "Dehydration (drug related AE, Grade 3 and 4)", "setting": "Arm A QD 2.0 mg (N = 7)", "value": "0 n (%)"},
      {"measurement": "Dehydration (drug related AE, all grades)", "setting": "Arm A QD 2.0 mg (N = 7)", "value": "1 (14) n (%)"},
      {"measurement": "Dermatitis acneiform (drug related AE, all grades)", "setting": "Arm A QD 2.0 mg (N = 7)", "value": "0 n (%)"},
      {"measurement": "Diarrhoea (drug related AE, Grade 3 and 4)", "setting": "Arm A QD 2.0 mg (N = 7)", "value": "1 (14) n (%)"},
      {"measurement": "Diarrhoea (drug related AE, all grades)", "setting": "Arm A QD 2.0 mg (N = 7)", "value": "5 (71) n (%)"},
      {"measurement": "Dry mouth (drug related AE, all grades)", "setting": "Arm A QD 2.0 mg (N = 7)", "value": "1 (14) n (%)"},
      {"measurement": "Dry skin (drug related AE, all grades)", "setting": "Arm A QD 2.0 mg (N = 7)", "value": "1 (14) n (%)"},
      {"measurement": "Dysgeusia (drug related AE, all grades)", "setting": "Arm A QD 2.0 mg (N = 7)", "value": "1 (14) n (%)"},
      {"measurement": "Dyspepsia (drug related AE, all grades)", "setting": "Arm A QD 2.0 mg (N = 7)", "value": "1 (14) n (%)"},
      {"measurement": "Dysphonia (drug related AE, all grades)", "setting": "Arm A QD 2.0 mg (N = 7)", "value": "3 (43) n (%)"},
      {"measurement": "Fatigue (drug related AE, Grade 3 and 4)", "setting": "Arm A QD 2.0 mg (N = 7)", "value": "0 n (%)"},
      {"measurement": "Fatigue (drug related AE, all grades)", "setting": "Arm A QD 2.0 mg (N = 7)", "value": "4 (57) n (%)"},
      {"measurement": "Flatulence (drug related AE, all grades)", "setting": "Arm A QD 2.0 mg (N = 7)", "value": "0 n (%)"},
      {"measurement": "Hypocalcaemia (drug related AE, Grade 3 and 4)", "setting": "Arm A QD 2.0 mg (N = 7)", "value": "0 n (%)"},
      {"measurement": "Hypocalcaemia (drug related AE, all grades)", "setting": "Arm A QD 2.0 mg (N = 7)", "value": "0 n (%)"},
      {"measurement": "Hypokalaemia (drug related AE, Grade 3 and 4)", "setting": "Arm A QD 2.0 mg (N = 7)", "value": "2 (29) n (%)"},
      {"measurement": "Hypokalaemia (drug related AE, all grades)", "setting": "Arm A QD 2.0 mg (N = 7)", "value": "2 (29) n (%)"},
      {"measurement": "Hyponatraemia (drug related AE, Grade 3 and 4)", "setting": "Arm A QD 2.0 mg (N = 7)", "value": "0 n (%)"},
      {"measurement": "Hyponatraemia (drug related AE, all grades)", "setting": "Arm A QD 2.0 mg (N = 7)", "value": "0 n (%)"},
      {"measurement": "Hypophosphataemia (drug related AE, Grade 3 and 4)", "setting": "Arm A QD 2.0 mg (N = 7)", "value": "3 (43) n (%)"},
      {"measurement": "Hypophosphataemia (drug related AE, all grades)", "setting": "Arm A QD 2.0 mg (N = 7)", "value": "3 (43) n (%)"},
      {"measurement": "Ileus (drug related AE, Grade 3 and 4)", "setting": "Arm A QD 2.0 mg (N = 7)", "value": "1 (14) n (%)"},
      {"measurement": "Increased upper airway secretion (drug related AE, all grades)", "setting": "Arm A QD 2.0 mg (N = 7)", "value": "0 n (%)"},
      {"measurement": "Laryngeal pain (drug related AE, all grades)", "setting": "Arm A QD 2.0 mg (N = 7)", "value": "0 n (%)"}
    ]}
  ]
}
